Data from patent publication US20130310387A1, “Monocyclic Heteroaryl Cycloalkyldiamine Derivatives” (NOVARTIS AG, priority 2012, published 2013).

Tests used:
[1] = target: Syk (2-635) (KSYK_HUMAN, P43405) (Homo sapiens, UniProt P43405); experiment: Syk enzyme assay (chip based microfluidic mobility shift assay); type: biochemical; conditions: 4 μM ATP, 4 nM Syk, 60 minutes at 30° C.
Procedure: A number of compounds of the present invention were assayed in a chip based microfluidic mobilitiy shift assay. All assays were performed in 384 well microtiter plates. Each assay plate contained 8-point serial dilutions for 40 test compounds, as well as four 8-point serial dilutions of staurosporine as reference compound, plus 16 high- and 16 low controls. Liquid handling and incubation steps were done on a Thermo CatX workstation equipped with a Innovadyne Nanodrop Express. Between pipetting steps, tips were cleaned in wash cycles using wash buffer. The assay plates were prepared by addition of 50 nl per well of compound solution in 90% DMSO. […] Kinase reactions were incubated at 30° C. for 60 minutes and subsequently terminated by addition of 16 μl per well of stop solution (100 mM HEPES pH 7.5, 5% DMSO, 0.1% Caliper coating reagent, 10 mM EDTA, and 0.015% Brij35). Plates with terminated kinase reactions were transferred to the Caliper LC3000 workstations for reading. Phosphorylated and unphosphorylated peptides were separated using the Caliper microfluidic mobility shift technology. Briefly, samples from terminated kinase reactions were applied to the chip. Analytes are transported through the chip by constant buffer flow and the migration of the substrate peptide is monitored by the fluorescence signal of its label. Phosphorylated peptide (product) and unphosphorylated peptide (substrate) are separated in an electric field by their charge/mass ratio. Kinase activities were calculated from the amounts of formed phospho-peptide. […] values were determined from percent inhibition values at different compound concentrations by non-linear regression analysis.
Test compounds were dissolved in DMSO (10 mM) and transferred into 1.4 mL flat bottom or V-shaped Matrix tubes carrying a unique 2D matrix. The stock solutions were stored at […] if not used immediately. For the test procedure the vials were defrosted and identified by a scanner whereby a working sheet was generated that guided the subsequent working steps.
Compound dilutions were made in 96 well plates. This format enabled the assay of maximally 40 individual test compounds at 8 concentrations (single points) including 4 reference compounds. The dilution protocol included the production of “pre-dilution plates”, “master plates” and “assay plates”.
96 polypropylene well plates were used as pre-dilution plates. A total of 4 pre-dilution plates were prepared including 10 test compounds each on the plate positions A1-A10, one standard compound at A11 and one DMSO control at A12. All dilution steps were done on a HamiltonSTAR robot.
30 μL of individual compound dilutions including standard compound and controls of the 4 “pre-dilution plates” were transferred into a 384 “master plate” including the following concentrations 1′810, 362, 72.5, […], 14.5, 2.9, 0.58 and 0.12 μM, respectively in 90% of DMSO.
Identical “assay plates” were then prepared by pipetting […] each of compound dilutions of the “master plates” into 384-well “assay plates” by means of a HummingBird 384-channel dispenser. These plates were used directly for the assay which was performed in a total volume of 9.05 μL. This led to a final compound concentration of 10, 2.0, 0.4, 0.08, 0.016, 0.0032, 0.00064 and 0.000128 μM and a final DMSO concentration of 0.5% in the assay.

[2] = system: SLP-76 phosphorylation in human whole blood monocytes; experiment: FcR stimulation-induced SLP-76 phosphorylation in human whole blood monocytes; type: cell-based; conditions: Monocyte, 5 min, anti CD32 stimulation 5 min, flow cytometry, read-out: Fc Recepor stimulation induced SLP-76 phosphorylation in human whole blood monocytes, IC50
From the text: After lysis of erythrocytes and washings, the cell pellet was permeabilized with ice-cold methanol 90%. The permeabilized cells were washed and stained with anti CD14 (eBioscience) to detect monocytes and anti P-SLP76 ([…]) (BD Biosciences) and quantified by flow cytometry.

OCI-Ly3 cells = experiment: B-cell lymphoma cell proliferation (WST-1 assay), OCI-Ly3; type: cell-based; conditions: OCI-Ly3, 3 days of incubation
Procedure: Cell proliferation was determined using the WST-1 assay (Roche, Mannheim, Germany), which measures the metabolic activity of the cells. […] The cell proliferation reagent WST-1 (10 μl/well) was added to the cells for 1-2 hours depending on the cell type which were cultured in 200 μl of medium. The absorbance was then measured with an enzyme-linked immunosorbent assay plate reader at a wavelength of 450 nm.

OCI-Ly10 cells = experiment: B-cell lymphoma cell proliferation (WST-1 assay), OCI-Ly10; type: cell-based; conditions: Homo sapiens, 72 h; OCI-Ly10, 3 days of incubation
Procedure: Cell proliferation was determined using the WST-1 assay (Roche, Mannheim, Germany), which measures the metabolic activity of the cells. Briefly, 5×10^5 TMD-8, OCI-Ly3, and OCI-Ly10 cells/well and 10×10^5 HBL-1 cells/well were seeded in triplicate in 96-well plates and were incubated with various concentrations of compounds to be tested for 3 days. The cell proliferation reagent WST-1 (10 μl/well) was added to the cells for 1-2 hours depending on the cell type which were cultured in 200 μl of medium. The absorbance was then measured with an enzyme-linked immunosorbent assay plate reader at a wavelength of 450 nm.

TMD-8 cells = experiment: cells; conditions: Homo sapiens, TMD8, 96 h
HBL-1 cells = experiment: cells; conditions: HBL1, 96 h

**Q.** Which results are given for `NC(=O)c1nnc(N[C@@H]2CCCC[C@@H]2N)nc1Nc1cccc2cc[nH]c12` [Example 1.1, 3-((1R,2S)-2-Amino-cyclohexylamino)-5-(1H-indol-7-ylamino)-[1,2,4]triazine-6-carboxylic acid amide]?
**A.** IC50 [1]: 23 nM; IC50 [2]: 378 nM; GI50 (OCI-Ly3 cells): No inhibition; GI50 (OCI-Ly10 cells): 25 nM; GI50 (TMD-8 cells): 281 nM; GI50 (HBL-1 cells): 105 nM
